Source: publication PMC13403234, “Engineering Cathepsin S Selective Chemical Probes and Antibody−Drug Conjugates through Substrate Profiling with Unnatural Amino Acids” (Journal of Medicinal Chemistry, 2026)
*1 amine or outer side, *2 acyl side, *3 side chain or, on linkers, in order; H or OH if unused. Where a SMILES comes first, the peptide text is derived from it. [ ]: non-standard residue; d: D form. The star is where a group is joined. Dolaproine = CO[C@@H]([C@@H]1CCCN1)[C@@H](C)C(=O)O; Phe(F5) = N[C@@H](Cc1c(F)c(F)c(F)c(F)c1F)C(=O)O; Dil = CC[C@H](C)[C@H](NC)[C@@H](CC(=O)O)OC; PABC = O=C(OCc1ccc(N[*:1])cc1)[*:2]; X1 = C[C@@H](N*)[C@@H](O)c1ccccc1; Cit = NC(=O)NCCC[C@H](N)C(=O)O; NMeV = CN[C@H](C(=O)O)C(C)C; ClZ = O=C(OCc1ccccc1Cl)*

Assays:
Cathepsin V [1] = target: T1, Cathepsin V (Homo sapiens, UniProt O60911); test: Second-order rate constants of inhibition (kobs/[I]), cathepsin V; type: biochemical; conditions: Figure 4D; Cy5- and BODIPY-labeled probes
T1 construct: made in house
T1 sequence (O60911 114-334): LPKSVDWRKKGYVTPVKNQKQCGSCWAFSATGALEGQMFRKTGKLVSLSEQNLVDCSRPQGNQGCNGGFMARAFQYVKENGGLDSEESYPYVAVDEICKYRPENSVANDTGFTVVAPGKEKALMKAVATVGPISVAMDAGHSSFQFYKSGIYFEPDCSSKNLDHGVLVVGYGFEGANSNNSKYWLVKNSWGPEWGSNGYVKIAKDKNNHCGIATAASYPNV
Method: (§1) All kinetic studies were performed using an fMax fluorescence plate reader (Molecular Devices) in kinetic mode with 96- or 384-well plates. ACC fluorescence was monitored at excitation and emission wavelengths of 355 and 460 nm, respectively. Recombinant human cysteine cathepsins L, V, B, K, and S were expressed and purified as previously described. Prior to use, all cysteine cathepsins were titrated with E64 to normalize enzymatic activity. Assays for cathepsins were conducted in 100 mM sodium acetate buffer containing 10 mM NaCl and 10 mM DTT (pH 5.5). Breast cancer cell lysates (BT-474, MCF-7, MDA-MB-231) were prepared by culturing cells to confluence in the appropriate media, replacing media with PBS, and harvesting the cells using a cell scraper (without trypsin). The cells were pelleted by centrifugation (400 × g, 5 min), resuspended in PBS, and centrifuged again under the same conditions. After removal of the supernatant, the pellet was resuspended in cathepsin assay buffer (excluding DTT) and sonicated. Lysates were then clarified by centrifugation (12,000 × g, 5 min), and the supernatants were collected and stored at −80 °C until use. All enzymatic assays, including HyCoSuL library screening and kinetic analyses of synthetic substrates, inhibitors, probes and prodrugs, were conducted at 37 °C and repeated at least three times. Mean values are reported. Kinetic data were analyzed using GraphPad Prism software (version 10.4.1).
(§2) The second-order rate constants of inhibition (k obs/[I]) were determined for human recombinant cathepsins S, B, L, and V using their respective assay buffers. All measurements were performed under pseudo-first-order kinetic conditions, as previously described. Inhibitors or ABPs were serially diluted in assay buffer and transferred to a 96-well plate. Each well was supplemented with the fluorogenic substrate Cbz-Phe-Arg-AMC at a final concentration of 25 μM and preincubated for 15 min. In parallel, enzymes were preactivated in assay buffer for 15 min at room temperature. Following preincubation, the activated enzymes were added to the wells, and fluorescence was monitored immediately for 30 min. The k obs/[I] values (M^-1S^-1) were calculated from the progress curves and averaged from at least three independent experiments. Final inhibitor (or ABP) concentrations were maintained at a minimum of 5-fold excess relative to enzyme concentrations to ensure pseudo-first-order conditions. Results were analyzed in GraphPad Prism and are reported as mean ± standard deviation.

Cathepsin L [2] = target: T2, Cathepsin L (Homo sapiens, UniProt P07711); test: Second-order rate constants of inhibition (kobs/[I]), cathepsin L; type: biochemical; conditions: for kobs/[I] Cath L: Figure 4D, Cy5- and BODIPY-labeled probes
T2 construct: made in house
T2 sequence (P07711 114-333): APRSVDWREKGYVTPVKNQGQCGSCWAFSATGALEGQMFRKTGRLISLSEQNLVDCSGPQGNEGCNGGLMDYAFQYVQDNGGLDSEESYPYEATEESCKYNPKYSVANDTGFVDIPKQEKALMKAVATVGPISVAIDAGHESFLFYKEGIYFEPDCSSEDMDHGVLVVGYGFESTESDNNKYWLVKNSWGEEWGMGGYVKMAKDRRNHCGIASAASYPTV
Method: as §1, §2

Cathepsin B [3] = target: T3, Cathepsin B (Homo sapiens, UniProt P07858); test: Second-order rate constants of inhibition (kobs/[I]), cathepsin B; type: biochemical; set-up: made in house; conditions: for kobs/[I] Cath B: Figure 4D, Cy5- and BODIPY-labeled probes
Method: as §1, §2

Cathepsin S [4] = target: T4, Cathepsin S (Homo sapiens, UniProt P25774); test: Second-order rate constants of inhibition (kobs/[I]), cathepsin S; type: biochemical; conditions: for kobs/[I] Cath S / Selectivity S to B / Selectivity S to V: Figure 4D; for kobs/[I] Cath S: Cy5- and BODIPY-labeled probes; for Selectivity S to B / Selectivity S to V: calculated from kobs/[I]; for Selectivity S to B: cathepsin S over cathepsin B; for Selectivity S to V: cathepsin S over cathepsin V
T4 construct: made in house
T4 sequence (P25774 115-331): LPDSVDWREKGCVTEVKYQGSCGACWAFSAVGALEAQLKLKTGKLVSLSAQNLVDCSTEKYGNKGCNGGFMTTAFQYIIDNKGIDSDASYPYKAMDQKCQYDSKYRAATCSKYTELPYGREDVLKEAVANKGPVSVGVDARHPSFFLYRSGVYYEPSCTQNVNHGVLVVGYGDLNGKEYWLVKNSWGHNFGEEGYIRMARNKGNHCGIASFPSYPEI
Method: as §1, §2

[5] = target: T5, active cathepsin S in MDA-MB-231 live cells (Homo sapiens, UniProt P25774); test: Labeling of active cathepsin S in MDA-MB-231 live cells with Cy5 probes; type: cell-based; conditions: inhibitor 25 μM for 2 h, then OG-233 or OG-234 for 24 h
T5 construct: endogenous in cells; host or cells: MDA-MB-231
T5 sequence (P25774 115-331): as above
Method: 50,000 of MDA-MB-231 cells were seeded into 12-well plate and allowed to attach overnight. The next day, OG-233 and OG-234 probes (1 μM final concentration) were added to the cells and incubated for various times (from 0,5 h up to 24 h). Control cells were preincubated with cathepsin S inhibitors (JN1, JN4, JN7) at 25 μM for 2 h, and then incubated with OG-233 or OG-234 probes for 24 h. Next, cells were harvested and prepared for SDS-PAGE analysis as described in the above section. Electrophoresis was run for 25 min (4−12% Bis-Tris Plus 10-well gel, 200 V). Next, proteins were transferred onto the membrane (0.2 μm nitrocellulose membrane, 10 V, 60 min) and Ponceau S was used to verify equal loading and transfer. Membranes were then blocked with 5% BSA in TBS-T buffer for 1 h at RT. Membranes were next incubated anticathepsin S antibody (1:1,000, overnight, 4 °C), and the next day with a secondary antibody (IRDye 800CW, donkey anti-Goat) for 30 min at RT, and scanned at 680 and 800 nm using the Sapphire biomolecular imager (Azure Biosystems) to detect the Cy5 probes and cathepsin S. All images were analyzed with Image Studio software.

Cathepsin V [6] = target: T1, Cathepsin V; test: Fluorogenic ACC substrate hydrolysis kinetics, cathepsin V; type: biochemical; set-up: kcat Cathepsin V: unit not given here; conditions: third-generation substrates, steady-state; for Km: Table S5; for kcat Cathepsin V: Table S6
Method: as §1
(§3) Peptide substrates for cathepsin S were designed based on P4-P1 specificity profiling and synthesized on Rink amide resin using standard Fmoc solid-phase peptide synthesis protocols. The resin was swollen in dichloromethane (DCM) and deprotected with 20% piperidine in DMF. Fmoc-ACC-OH was coupled twice using HOBt/DIC in DMF and allowed to react overnight. Subsequent Fmoc-protected amino acids were coupled sequentially using HATU and 2,4,6-collidine, with Fmoc deprotection after each step using 20% piperidine in DMF. Following chain assembly, the N-terminus was acetylated using AcOH/HBTU/DIPEA in DMF for 45 min. Peptides were cleaved from the resin using TFA/TIPS/H2O (95:2.5:2.5, v/v/v) for 2 h, precipitated in cold diethyl ether, lyophilized, and purified by preparative HPLC. […] Final compounds were dissolved in DMSO at 20 mM and stored at −80 °C. To evaluate substrate selectivity, each fluorogenic peptide (10 μM) was incubated with recombinant cysteine cathepsins (5 nM) in assay buffer at 37 °C. Fluorescence emission was recorded at 460 nm, and initial cleavage rates were reported as relative fluorescence units per second (RFU/s). For selected substrates, detailed kinetic parameters (k cat, KM, and k cat/KM) were determined as previously described.

Cathepsin B [7] = target: T3, Cathepsin B; test: Fluorogenic ACC substrate hydrolysis kinetics, cathepsin B; type: biochemical; set-up: made in house; kcat Cathepsin B: unit not given here; conditions: third-generation substrates, steady-state; for Km: Table S5; for kcat Cathepsin B: Table S6
Method: as §1, §3

Cathepsin S [8] = target: T4, Cathepsin S; test: Fluorogenic ACC substrate hydrolysis kinetics, cathepsin S; type: biochemical; set-up: kcat Cathepsin S: unit not given here; conditions: third-generation substrates, steady-state; for Km: Table S5; for kcat Cathepsin S: Table S6
Method: as §1, §3

Cathepsin L [9] = target: T2, Cathepsin L; test: Fluorogenic ACC substrate hydrolysis kinetics, cathepsin L; type: biochemical; set-up: kcat Cathepsin L: unit not given here; conditions: third-generation substrates, steady-state; for Km: Table S5; for kcat Cathepsin L: Table S6
Method: as §1, §3

Cathepsin S [10] = target: T4, Cathepsin S; test: Prodrug cleavage / MMAE release by LC-MS, cathepsin S; type: biochemical; conditions: prodrug 50 μM, pH 5.5, 37 °C, 0-120 min
Method: Cleavage assays were conducted at 37 °C in 1 mL reaction volumes using acetate buffer composed of 100 mM sodium acetate (pH 5.5), 100 mM NaCl, 1 mM EDTA, and 5 mM DTT. Buffers were prepared at room temperature and equilibrated before use. Prodrugs were initially dissolved in DMSO at a stock concentration of 10 mM, then diluted into the reaction buffer to a final concentration of 50 μM, maintaining a DMSO concentration below 0.5% (v/v). Reactions were initiated by the addition of recombinant cathepsin and carried out in glass LC-MS vials incubated at 37 °C. At specified time points (0, 5, 30, 60, and 120 min), aliquots were taken and directly injected into the LC-MS system without further processing. Quantification of MMAE release was based on absorbance at 220 nm. The area under the MMAE peak was integrated, and the amount of released MMAE was plotted as a function of time. Each time point was measured in triplicate, and results are presented as mean ± standard deviation (SD). A standard curve was prepared using free MMAE at concentrations of 1, 5, 10, 20, and 50 μM to enable accurate quantification of MMAE released from the prodrugs.

Compound: BODIPY-PEG(4)-Phe(F5)-Cit-Lys(2ClZ)-Glu(Me)-AOMK [OG-235]
- kobs/[I] Cath V (Cathepsin V [1]): 1,640 M^-1s^-1
- kobs/[I] Cath L (Cathepsin L [2]): < 500 M⁻¹ s⁻¹
- kobs/[I] Cath B (Cathepsin B [3]): 7,700 M^-1s^-1
- kobs/[I] Cath S (Cathepsin S [4]): 1,140,000 M^-1s^-1
- Selectivity S to B (Cathepsin S [4]): 148
- Selectivity S to V (Cathepsin S [4]): 695
- higher potency than the unlabeled parent inhibitor (Cathepsin S [4]; cathepsin S kobs/[I], probe vs parent inhibitor): over 2 fold
- selectivity for cathepsin S over cathepsin L (Cathepsin S [4]; kobs/[I] based): > 2000 fold
- selectivity for cathepsin S over cathepsin V (Cathepsin S [4]; kobs/[I] based): > 500 fold

Compound: Ac-Phe(F5)-Cit-Lys(2ClZ)-Glu(Me)-AOMK [JN-7]
- effect of inhibitor pretreatment on probe binding [5]: did not influence probe binding

Compound: BODIPY-PEG(4)-Met(O2)-Cit-NptGly-Glu(Me)-AOMK [OG-236]
- kobs/[I] Cath V (Cathepsin V [1]): 2,170 M^-1s^-1
- kobs/[I] Cath L (Cathepsin L [2]): < 500 M⁻¹ s⁻¹
- kobs/[I] Cath B (Cathepsin B [3]): 3,800 M^-1s^-1
- kobs/[I] Cath S (Cathepsin S [4]): 78,300 M^-1s^-1
- Selectivity S to B (Cathepsin S [4]): 21
- Selectivity S to V (Cathepsin S [4]): 36

Compound: Ac-Met(O2)-Cit-NptGly-Glu(Me)-AOMK [JN-1]
- effect of inhibitor pretreatment on probe binding [5]: did not influence probe binding

Compound: Ac-Phe(F5)-Thz-2Aoc-Glu(Me)-ACC [OG-201]
- Km (Cathepsin V [6]): 11.2 µM
- kcat Cathepsin V (Cathepsin V [6]): 0,29
- Km (Cathepsin B [7]): 15.8 µM
- kcat Cathepsin B (Cathepsin B [7]): 0,46
- Km (Cathepsin S [8]): 3.04 µM
- kcat Cathepsin S (Cathepsin S [8]): 0,65
- Km (Cathepsin L [9]): 12.1 µM
- kcat Cathepsin L (Cathepsin L [9]): 0,03

Compound: CC(C)C[C@H](NC(=O)[C@H]1O[C@@H]1C(=O)O)C(=O)NCCCCN=C(N)N [E-64, reference compound]
- kinact/KI (Cathepsin L [2]; pH 5.5, read-out: kobs/[I] Cathepsin L): 65100 M⁻¹ s⁻¹
- kinact/KI (Cathepsin B [3]; pH 5.5, read-out: kobs/[I] Cathepsin B): 81200 M⁻¹ s⁻¹
- kinact/KI (Cathepsin S [4]; pH 5.5, Table S8, AOMK inhibitors, pseudo-first-order conditions): 132000 M⁻¹ s⁻¹

Compound: Ac-Phe(F5)-Thz-2Aoc-Gln-ACC [OG-200]
- Km (Cathepsin V [6]): 4.31 µM
- kcat Cathepsin V (Cathepsin V [6]): 0,20
- Km (Cathepsin B [7]): 20.3 µM
- kcat Cathepsin B (Cathepsin B [7]): 0,30
- Km (Cathepsin S [8]): 1.63 µM
- kcat Cathepsin S (Cathepsin S [8]): 0,15
- Km (Cathepsin L [9]): 15.9 µM
- kcat Cathepsin L (Cathepsin L [9]): 0,02

Compound: CC[C@H](C)[C@@H]([C@@H](CC(=O)N1CCC[C@H]1[C@H](OC)[C@@H](C)C(=O)N[C@H](C)[C@@H](O)c1ccccc1)OC)N(C)C(=O)[C@@H](NC(=O)[C@H](C(C)C)N(C)C(=O)OCc1ccc(NC(=O)[C@@H](CCC(=O)OC)NC(=O)[C@H](CCCCNC(=O)OCc2ccccc2Cl)NC(=O)[C@H](CCCNC(N)=O)NC(=O)[C@H](Cc2c(F)c(F)c(F)c(F)c2F)NC(C)=O)cc1)C(C)C [313D, Ac-Phe(F5)-Cit-Lys(2ClZ)-DGlu(Me)-PABC-MMAE] (Ac-[Phe(F5)][Cit]K(ClZ)[dE](OMe)[PABC][NMeV]V[Dil][Dolaproine]-X1; N-terminus and C-terminus assumed)
- cleavage / free MMAE release by cathepsin S (Cathepsin S [10]): remained stable

Compound: CC[C@H](C)[C@@H]([C@@H](CC(=O)N1CCC[C@H]1[C@H](OC)[C@@H](C)C(=O)N[C@H](C)[C@@H](O)c1ccccc1)OC)N(C)C(=O)[C@@H](NC(=O)[C@H](C(C)C)N(C)C(=O)OCc1ccc(NC(=O)[C@H](CCC(=O)OC)NC(=O)[C@H](CCCCNC(=O)OCc2ccccc2Cl)NC(=O)[C@H](CCCNC(N)=O)NC(=O)[C@H](Cc2c(F)c(F)c(F)c(F)c2F)NC(C)=O)cc1)C(C)C [compound 313, Ac-Phe(F5)-Cit-Lys(2ClZ)-Glu(Me)-PABC-MMAE] (Ac-[Phe(F5)][Cit]K(ClZ)E(OMe)[PABC][NMeV]V[Dil][Dolaproine]-X1; N-terminus and C-terminus assumed)
- cleavage / free MMAE release by cathepsin S (Cathepsin S [10]): selectively and efficiently hydrolyzed only by cathepsin S
